# Assays:
# Test in all cases: MIC of meropenem in combination with compound, CDC carbapenem resistant strain
# Format in all cases: cell-based
# A. baumannii (Ab) AR# 33 = test system: A. baumannii (Ab) AR# 33
# Procedure: (§1) EXAMPLE 2: Six compounds were assessed for their activity in combination with meropenem against carbapenem resistant strains of A. baumannii (Ab), K. pneumoniae (Kp), and E. coli acquired from the Center for Disease Control (CDC). AR #—assigned AR-BANK number from the CDC.
# A. baumannii (Ab) AR# 35 = test system: A. baumannii (Ab) AR# 35
# Procedure: as §1
# A. baumannii (Ab) AR# 36 = test system: A. baumannii (Ab) AR# 36
# Procedure: as §1
# A. baumannii (Ab) AR# 37 = test system: A. baumannii (Ab) AR# 37
# Procedure: as §1
# A. baumannii (Ab) AR# 45 = test system: A. baumannii (Ab) AR# 45
# Procedure: as §1
# A. baumannii (Ab) AR# 52 = test system: A. baumannii (Ab) AR# 52
# Procedure: as §1
# A. baumannii (Ab) AR# 56 = test system: A. baumannii (Ab) AR# 56
# Procedure: as §1
# A. baumannii (Ab) AR# 63 = test system: A. baumannii (Ab) AR# 63
# Procedure: as §1
# A. baumannii (Ab) AR# 70 = test system: A. baumannii (Ab) AR# 70
# Procedure: as §1
# A. baumannii (Ab) AR# 83 = test system: A. baumannii (Ab) AR# 83
# Procedure: as §1
# A. baumannii (Ab) AR# 88 = test system: A. baumannii (Ab) AR# 88
# Procedure: as §1
# E. coli AR# 48 = test system: E. coli AR# 48
# Procedure: as §1
# E. coli AR# 55 = test system: E. coli AR# 55
# Procedure: as §1
# [1] = test system: K. pneumoniae (Kp) AR# 40
# Procedure: as §1
# [2] = test system: K. pneumoniae (Kp) AR# 41
# Procedure: as §1
# [3] = test system: K. pneumoniae (Kp) AR# 68
# Procedure: as §1
# [4] = test system: K. pneumoniae (Kp) AR# 98
# Procedure: as §1
# [5] = 15 μM of 2-amino imidazole compound
# [6] = 30 μM of 2-amino imidazole compound
# [7] = 7 μM of 2-amino imidazole compound
# [8] = 64 μM of 2-amino imidazole compound
# [9] = 4 μM of 2-amino imidazole compound
# [10] = 2 μM of 2-amino imidazole compound
# [11] = 60 μM of 2-amino imidazole compound
smiles,measurement,setting,value
"CCCc1ccc(NC(=O)Nc2cccc(-c3cnc(N)[nH]3)c2)cc1 [Compound 2, 1-(3-(2-amino-1H-imidazol-5-yl)phenyl)-3-(4-propylphenyl)urea]",Minimum Inhibitory Concentration of Meropenem,A. baumannii (Ab) AR# 33; [5],32 (15) μg/mL
same,Minimum Inhibitory Concentration of Meropenem,A. baumannii (Ab) AR# 35; [5],16 (15) μg/mL
same,Minimum Inhibitory Concentration of Meropenem,A. baumannii (Ab) AR# 36; [6],4 (30) μg/mL
same,Minimum Inhibitory Concentration of Meropenem,A. baumannii (Ab) AR# 37; [5],64 (15) μg/mL
same,Minimum Inhibitory Concentration of Meropenem,A. baumannii (Ab) AR# 45; [5],1.5 (15) μg/mL
same,Minimum Inhibitory Concentration of Meropenem,A. baumannii (Ab) AR# 52; [5],1.5 (15) μg/mL
same,Minimum Inhibitory Concentration of Meropenem,A. baumannii (Ab) AR# 56; [5],8 (15) μg/mL
same,Minimum Inhibitory Concentration of Meropenem,A. baumannii (Ab) AR# 63; [6],8 (30) μg/mL
same,Minimum Inhibitory Concentration of Meropenem,A. baumannii (Ab) AR# 70; [7],2 (7) μg/mL
same,Minimum Inhibitory Concentration of Meropenem,A. baumannii (Ab) AR# 83; [5],96 (15) μg/mL
same,Minimum Inhibitory Concentration of Meropenem,A. baumannii (Ab) AR# 88; [5],128 (15) μg/mL
same,Minimum Inhibitory Concentration of Meropenem,E. coli AR# 48; [8],128 (64) μg/mL
same,Minimum Inhibitory Concentration of Meropenem,E. coli AR# 55; [8],64 (64) μg/mL
same,Minimum Inhibitory Concentration of Meropenem,[1]; [8],1024 (64) μg/mL
same,Minimum Inhibitory Concentration of Meropenem,[2]; [8],32 (64) μg/mL
same,Minimum Inhibitory Concentration of Meropenem,[3]; 32 μM of 2-amino imidazole compound,256 (32) μg/mL
same,Minimum Inhibitory Concentration of Meropenem,[4]; [8],64 (64) μg/mL
"Nc1ncc(-c2cccc(NC(=O)Nc3cc(Br)cc(Br)c3)c2)[nH]1 [Compound 7, 1-(3-(2-amino-1H-imidazol-5-yl)phenyl)-3-(3,5-dibromophenyl)urea]",Minimum Inhibitory Concentration of Meropenem,A. baumannii (Ab) AR# 33; [5],16 (15) μg/mL
same,Minimum Inhibitory Concentration of Meropenem,A. baumannii (Ab) AR# 35; [6],32 (30) μg/mL
same,Minimum Inhibitory Concentration of Meropenem,A. baumannii (Ab) AR# 36; [7],8 (7) μg/mL
same,Minimum Inhibitory Concentration of Meropenem,A. baumannii (Ab) AR# 37; [7],32 (7) μg/mL
same,Minimum Inhibitory Concentration of Meropenem,A. baumannii (Ab) AR# 45; [5],1 (15) μg/mL
same,Minimum Inhibitory Concentration of Meropenem,A. baumannii (Ab) AR# 52; [9],2 (4) μg/mL
same,Minimum Inhibitory Concentration of Meropenem,A. baumannii (Ab) AR# 56; [5],8 (15) μg/mL
same,Minimum Inhibitory Concentration of Meropenem,A. baumannii (Ab) AR# 63; [9],32 (4) μg/mL
same,Minimum Inhibitory Concentration of Meropenem,A. baumannii (Ab) AR# 70; [10],4 (2) μg/mL
same,Minimum Inhibitory Concentration of Meropenem,A. baumannii (Ab) AR# 83; [5],24 (15) μg/mL
same,Minimum Inhibitory Concentration of Meropenem,A. baumannii (Ab) AR# 88; [5],64 (15) μg/mL
same,Minimum Inhibitory Concentration of Meropenem,E. coli AR# 48; [5],64 (15) μg/mL
same,Minimum Inhibitory Concentration of Meropenem,E. coli AR# 55; [5],64 (15) μg/mL
same,Minimum Inhibitory Concentration of Meropenem,[1]; [5],64 (15) μg/mL
same,Minimum Inhibitory Concentration of Meropenem,[2]; [5],8 (15) μg/mL
same,Minimum Inhibitory Concentration of Meropenem,[3]; [7],128 (7) μg/mL
same,Minimum Inhibitory Concentration of Meropenem,[4]; [7],64 (7) μg/mL
"Cc1nc(N)[nH]c1-c1cccc(NC(=O)Nc2ccc(C(F)(F)F)c(Cl)c2)c1 [Compound 68, 1-(3-(2-amino-4-methyl-1H-imidazol-5-yl)phenyl)-3-(3-chloro-4-(trifluoromethyl)phenyl)urea]",Minimum Inhibitory Concentration of Meropenem,A. baumannii (Ab) AR# 33; [9],64 (4) μg/mL
same,Minimum Inhibitory Concentration of Meropenem,A. baumannii (Ab) AR# 35; [9],64 (4) μg/mL
same,Minimum Inhibitory Concentration of Meropenem,A. baumannii (Ab) AR# 36; [9],48 (4) μg/mL
same,Minimum Inhibitory Concentration of Meropenem,A. baumannii (Ab) AR# 37; [9],64 (4) μg/mL
same,Minimum Inhibitory Concentration of Meropenem,A. baumannii (Ab) AR# 45; [9],3 (4) μg/mL
same,Minimum Inhibitory Concentration of Meropenem,A. baumannii (Ab) AR# 52; [9],4 (4) μg/mL
same,Minimum Inhibitory Concentration of Meropenem,A. baumannii (Ab) AR# 56; [9],4 (4) μg/mL
same,Minimum Inhibitory Concentration of Meropenem,A. baumannii (Ab) AR# 63; [10],128 (2) μg/mL
same,Minimum Inhibitory Concentration of Meropenem,A. baumannii (Ab) AR# 70; [9],1 (4) μg/mL
same,Minimum Inhibitory Concentration of Meropenem,A. baumannii (Ab) AR# 83; [9],64 (4) μg/mL
same,Minimum Inhibitory Concentration of Meropenem,A. baumannii (Ab) AR# 88; [9],64 (4) μg/mL
same,Minimum Inhibitory Concentration of Meropenem,E. coli AR# 48; [9],128 (4) μg/mL
same,Minimum Inhibitory Concentration of Meropenem,E. coli AR# 55; [9],64 (4) μg/mL
same,Minimum Inhibitory Concentration of Meropenem,[1]; [7],64 (7) μg/mL
same,Minimum Inhibitory Concentration of Meropenem,[2]; [9],64 (4) μg/mL
same,Minimum Inhibitory Concentration of Meropenem,[3]; [7],128 (7) μg/mL
same,Minimum Inhibitory Concentration of Meropenem,[4]; [7],32 (7) μg/mL
"Nc1ncc(-c2cccc(NC(=O)Nc3cccc(-c4cnc(N)[nH]4)c3)c2)[nH]1 [Compound 92, 1,3-bis(3-(2-amino-1H-imidazol-5-yl)phenyl)urea]",Minimum Inhibitory Concentration of Meropenem,A. baumannii (Ab) AR# 33; [5],12 (15) μg/mL
same,Minimum Inhibitory Concentration of Meropenem,A. baumannii (Ab) AR# 35; [6],8 (30) μg/mL
same,Minimum Inhibitory Concentration of Meropenem,A. baumannii (Ab) AR# 36; [5],4 (15) μg/mL
same,Minimum Inhibitory Concentration of Meropenem,A. baumannii (Ab) AR# 37; [5],32 (15) μg/mL
same,Minimum Inhibitory Concentration of Meropenem,A. baumannii (Ab) AR# 45; [7],2 (7) μg/mL
same,Minimum Inhibitory Concentration of Meropenem,A. baumannii (Ab) AR# 52; [10],2 (2) μg/mL
same,Minimum Inhibitory Concentration of Meropenem,A. baumannii (Ab) AR# 56; [5],8 (15) μg/mL
same,Minimum Inhibitory Concentration of Meropenem,A. baumannii (Ab) AR# 63; [7],8 (7) μg/mL
same,Minimum Inhibitory Concentration of Meropenem,A. baumannii (Ab) AR# 70; [10],4 (2) μg/mL
same,Minimum Inhibitory Concentration of Meropenem,A. baumannii (Ab) AR# 83; [5],64 (15) μg/mL
same,Minimum Inhibitory Concentration of Meropenem,A. baumannii (Ab) AR# 88; [5],64 (15) μg/mL
same,Minimum Inhibitory Concentration of Meropenem,E. coli AR# 48; [7],256 (7) μg/mL
same,Minimum Inhibitory Concentration of Meropenem,E. coli AR# 55; [5],128 (15) μg/mL
same,Minimum Inhibitory Concentration of Meropenem,[1]; [11],256 (60) μg/mL
same,Minimum Inhibitory Concentration of Meropenem,[2]; [11],64 (60) μg/mL
same,Minimum Inhibitory Concentration of Meropenem,[3]; [6],64 (30) μg/mL
same,Minimum Inhibitory Concentration of Meropenem,[4]; [11],64 (60) μg/mL

# Reference: patent US11582970B2, “2-aminoimidazole-phenyl derivatives useful for controlling microbial growth” (NORTH CAROLINA STATE UNIVERSITY, priority 2017, dated 2023)
